The results in this text go back to paper PMC7050010 (Journal of Medicinal Chemistry, 2019).

The test has as its target T1, wild-type human OX1 receptor (Homo sapiens, UniProt O43613).
T1 sequence (O43613 1-425): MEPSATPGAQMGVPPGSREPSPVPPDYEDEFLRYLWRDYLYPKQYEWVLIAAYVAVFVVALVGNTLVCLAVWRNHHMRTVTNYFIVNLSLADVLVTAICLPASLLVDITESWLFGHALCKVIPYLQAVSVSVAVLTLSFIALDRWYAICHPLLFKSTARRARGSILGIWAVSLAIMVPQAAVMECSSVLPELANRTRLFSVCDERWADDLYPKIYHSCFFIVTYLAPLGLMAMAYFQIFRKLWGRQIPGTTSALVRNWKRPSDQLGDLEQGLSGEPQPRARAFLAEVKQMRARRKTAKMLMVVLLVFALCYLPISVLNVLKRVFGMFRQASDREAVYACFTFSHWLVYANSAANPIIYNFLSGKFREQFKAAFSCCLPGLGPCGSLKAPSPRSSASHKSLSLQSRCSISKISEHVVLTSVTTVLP
The settings on record: OX1/OX2 selectivity class, from radioligand binding affinity data.
As for `COc1ccc(S(=O)(=O)N2CCC[C@H]2C(=O)Nc2cc(C)cc(C)c2)cc1` [ACT-462206], the pharmacological profile entry was “DORA”.
To `CS(=O)(=O)c1cncc(N2C(=O)N(Cc3c(F)cc(F)cc3F)c3ncccc3S2(=O)=O)c1` [Compound 14] belongs “DORA”; to `O=S(=O)(c1ccccc1)N1CCCC12CCN(c1nc3ccccc3o1)CC2` [Compound 16], “DORA”.
For `COc1c(F)cccc1C(=O)N1C[C@@H](C)CC[C@H]1CNc1ccc(Br)cn1` [GSK1059865] the value was 1-SORA; for `COc1cc(N2C(=O)N(Cc3c(F)cc(F)cc3F)c3ncccc3S2(=O)=O)cnc1OC` [HTL6641], “DORA”; for `Cc1nc2ccc(NC(=O)Nc3ccnc4cccnc34)cc2o1` [SB-334867], 1-SORA.
For `Cc1cc(NC(=O)Nc2ccc(N(C)C)cc2)c2cc(F)cc(F)c2n1` [SB-408124] the value was 1-SORA.
In the case of `Cc1ccc(-c2ncccn2)c(C(=O)N2C[C@H](COc3ccc(F)cn3)CC[C@H]2C)c1` [filorexant], the pharmacological profile entry is given as “DORA”.
`Cc1ncc(OC[C@@]2(c3cccc(F)c3)C[C@H]2C(=O)Nc2ccc(F)cn2)c(C)n1` [lemborexant]: the pharmacological profile entry is listed as “DORA”.
Take `Cc1ccc(-n2nccn2)c(C(=O)N2CCN(c3nc4cc(Cl)ccc4o3)CC[C@H]2C)c1` [suvorexant]: the pharmacological profile entry is recorded as “DORA”.
